Common to all, as to assay type: cell-based
Data set [1] relates to CYP4V2 gene expression in cell lines with decreased expression. The experiment in a line: CYP4V2 gene expression after treatment with 5-aza-dCyd and/or TSA. As to the method:
(§1) (A) The expression status of a DKFZP564J gene and a CYP4V2 gene in cell lines in which the expression levels of the aforementioned genes had been decreased, which were treated with 5-aza-dCyd and/or TSA.

Data set [2] concerns MTNR1A gene expression in oral squamous-cell carcinoma cell lines (TOSCa-50, ZA, and NA). Put plainly: Recovery of MTNR1A gene expression by demethylation, examined by RT-PCR. The procedure: (C) MTNR1A expression was recovered by a demethylation treatment performed on cells in which the gene was not expressed. The cells were treated using a 1 μM or 5 μM demethylating reagent 5-aza-dCyd for 5 days and/or using a deacetylation inhibitory agent TSA (100 ng/ml) for 12 hours. GAPDH was used as an internal control.
Specifically, single-stranded cDNA was synthesized from the RNA extracted from each cultured cell line using the SuperScript First-Strand Synthesis System (Invitrogen). Moreover, a glyceraldehyde-3-phosphate dehydrogenase (GAPDH) gene was used as a control.
In order to examine if the suppressed expression of the MTNR1A gene was due to DNA methylation, oral squamous-cell carcinoma cell lines (TOSCa-50, ZA, and NA) that had not expressed the MTNR1A gene were treated with a 1 μM or 5 μM demethylating reagent 5-aza-dCyd for 5 days and/or with a deacetylation inhibitory agent TSA (100 ng/ml) for 12 hours. RNAs were extracted from these cells, and MTNR1A gene expression was then examined by RT-PCR (FIG. 2c).

For data set [3], the system named is DKFZP564J gene expression in cell lines with decreased expression. Put plainly: DKFZP564J gene expression after treatment with 5-aza-dCyd and/or TSA. As to the method:
as §1

“Also recorded” adds a separate entry of the source.

Turning to `Nc1ncn([C@H]2C[C@H](O)[C@@H](CO)O2)c(=O)n1` [5-aza-dCyd, 5-azadeoxycytidine], in data set [1], the CYP4V2 gene expression result is “gene expression was not recovered”. Moreover, the “MTNR1A gene expression (RT-PCR)” value in data set [2] (1 μM or 5 μM 5-aza-dCyd for 5 days, NA cells not expressing MTNR1A) is “recovers its gene expression; also recorded: possible to recover the expression level of the MTNR1A gene”. Moreover, in data set [3], the DKFZP564J gene expression entry was “gene expression was not recovered”.

`CC(/C=C/C(=O)NO)=C\[C@@H](C)C(=O)c1ccc(N(C)C)cc1` [TSA]: the “MTNR1A gene expression (RT-PCR)” value in data set [2] (TSA 100 ng/ml for 12 hours, NA cells) is “no differences in MTNR1A gene expression”.

The values are drawn from patent US8143003B2, “Method for detecting oral squamous-cell carcinoma” (Fujifilm Corporation, priority 2008, dated 2012).
